Reference: PubChem BioAssay (NCI)
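In this assay, cells in 96-well plates receive the compound at five concentrations for 48 hours. Endpoints are linearly interpolated between the surrounding concentrations. The concentration for 50% growth inhibition is given as GI50. The concentration for full growth arrest is given as TGI.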

Experiments:
Test in all cases: growth of human tumour cells (NCI), 48 h
MDA-MB-231 breast = tested on: MDA-MB-231 breast
COLO 205 colon = tested on: COLO 205 colon
HOP-62 NSCLC = tested on: HOP-62 NSCLC
ACHN renal = tested on: ACHN renal
HL-60(TB) leukemia = tested on: HL-60(TB) leukemia
LOX IMVI melanoma = tested on: LOX IMVI melanoma
HS 578T breast = tested on: HS 578T breast
OVCAR-4 ovarian = tested on: OVCAR-4 ovarian
SN12C renal = tested on: SN12C renal
EKVX NSCLC = tested on: EKVX NSCLC
CAKI-1 renal = tested on: CAKI-1 renal
M14 melanoma = tested on: M14 melanoma
SF-268 CNS = tested on: SF-268 CNS
A549 NSCLC = tested on: A549 NSCLC
HT29 colon = tested on: HT29 colon
A498 renal = tested on: A498 renal
SF-295 CNS = tested on: SF-295 CNS
NCI-H522 lung = tested on: NCI-H522 lung
SK-MEL-28 melanoma = tested on: SK-MEL-28 melanoma
HCT-116 colon = tested on: HCT-116 colon
SK-MEL-2 melanoma = tested on: SK-MEL-2 melanoma
OVCAR-8 ovarian = tested on: OVCAR-8 ovarian
SNB-75 CNS = tested on: SNB-75 CNS
MALME-3M melanoma = tested on: MALME-3M melanoma
K-562 leukemia = tested on: K-562 leukemia
CCRF-CEM leukemia = tested on: CCRF-CEM leukemia
NCI/ADR-RES ovarian = tested on: NCI/ADR-RES ovarian
NCI-H226 lung = tested on: NCI-H226 lung
NCI-H460 lung = tested on: NCI-H460 lung
TK-10 renal = tested on: TK-10 renal
SNB-19 CNS = tested on: SNB-19 CNS
KM12 colon = tested on: KM12 colon
U251 CNS = tested on: U251 CNS
SW-620 colon = tested on: SW-620 colon
MCF7 breast = tested on: MCF7 breast
RXF 393 renal = tested on: RXF 393 renal
HCC-2998 colon = tested on: HCC-2998 colon
PC-3 prostate = tested on: PC-3 prostate
786-0 renal = tested on: 786-0 renal
UACC-62 melanoma = tested on: UACC-62 melanoma
SF-539 CNS = tested on: SF-539 CNS
DU-145 prostate = tested on: DU-145 prostate
OVCAR-3 ovarian = tested on: OVCAR-3 ovarian
RPMI-8226 leukemia = tested on: RPMI-8226 leukemia
HCT-15 colon = tested on: HCT-15 colon
BT-549 breast = tested on: BT-549 breast
MDA-MB-435 = tested on: MDA-MB-435
IGROV1 ovarian = tested on: IGROV1 ovarian
SK-MEL-5 melanoma = tested on: SK-MEL-5 melanoma
UACC-257 melanoma = tested on: UACC-257 melanoma
OVCAR-5 ovarian = tested on: OVCAR-5 ovarian
UO-31 renal = tested on: UO-31 renal
NCI-H23 lung = tested on: NCI-H23 lung
MOLT-4 leukemia = tested on: MOLT-4 leukemia
SR leukemia = tested on: SR leukemia
SK-OV-3 ovarian = tested on: SK-OV-3 ovarian
T-47D breast = tested on: T-47D breast

Cc1nc(NS(=O)(=O)c2ccc(NCN3C(=O)c4ccccc4C3=O)cc2)oc1C
GI50 (MDA-MB-231 breast): > 100 µM
TGI (MDA-MB-231 breast): > 100 µM
GI50 (COLO 205 colon): > 100 µM
TGI (COLO 205 colon): > 100000 nM
GI50 (HOP-62 NSCLC): > 100 µM
TGI (HOP-62 NSCLC): > 100000 nM
GI50 (ACHN renal): > 100 µM
TGI (ACHN renal): > 100000 nM
GI50 (HL-60(TB) leukemia): > 100 µM
TGI (HL-60(TB) leukemia): > 100 µM
GI50 (LOX IMVI melanoma): > 100 µM
TGI (LOX IMVI melanoma): > 100 µM
GI50 (HS 578T breast): > 100 µM
TGI (HS 578T breast): > 100 µM
GI50 (OVCAR-4 ovarian): > 100 µM
TGI (OVCAR-4 ovarian): > 100000 nM
GI50 (SN12C renal): > 100 µM
TGI (SN12C renal): > 100 µM
GI50 (EKVX NSCLC): > 100 µM
TGI (EKVX NSCLC): > 100 µM
GI50 (CAKI-1 renal): > 100 µM
TGI (CAKI-1 renal): > 100 µM
GI50 (M14 melanoma): > 100 µM
TGI (M14 melanoma): > 100 µM
GI50 (SF-268 CNS): > 100 µM
TGI (SF-268 CNS): > 100 µM
GI50 (A549 NSCLC): > 100 µM
TGI (A549 NSCLC): > 100 µM
GI50 (HT29 colon): > 100 µM
TGI (HT29 colon): > 100 µM
GI50 (A498 renal): > 100 µM
TGI (A498 renal): > 100 µM
GI50 (SF-295 CNS): > 100 µM
TGI (SF-295 CNS): > 100000 nM
GI50 (NCI-H522 lung): > 100 µM
TGI (NCI-H522 lung): > 100 µM
GI50 (SK-MEL-28 melanoma): > 100 µM
TGI (SK-MEL-28 melanoma): > 100 µM
GI50 (HCT-116 colon): > 100 µM
TGI (HCT-116 colon): > 100 µM
GI50 (SK-MEL-2 melanoma): > 100 µM
TGI (SK-MEL-2 melanoma): > 100 µM
GI50 (OVCAR-8 ovarian): > 100 µM
TGI (OVCAR-8 ovarian): > 100 µM
GI50 (SNB-75 CNS): > 100 µM
TGI (SNB-75 CNS): > 100 µM
GI50 (MALME-3M melanoma): > 100 µM
TGI (MALME-3M melanoma): > 100 µM
GI50 (K-562 leukemia): > 100 µM
TGI (K-562 leukemia): > 100 µM
GI50 (CCRF-CEM leukemia): 11.3 nM
TGI (CCRF-CEM leukemia): 42.2 nM
GI50 (NCI/ADR-RES ovarian): > 100 µM
TGI (NCI/ADR-RES ovarian): > 100 µM
GI50 (NCI-H226 lung): > 100 µM
TGI (NCI-H226 lung): > 100 µM
GI50 (NCI-H460 lung): > 100 µM
TGI (NCI-H460 lung): > 100 µM
GI50 (TK-10 renal): > 100 µM
TGI (TK-10 renal): > 100 µM
GI50 (SNB-19 CNS): > 100 µM
TGI (SNB-19 CNS): > 100 µM
GI50 (KM12 colon): > 100 µM
TGI (KM12 colon): > 100 µM
GI50 (U251 CNS): > 100 µM
TGI (U251 CNS): > 100 µM
GI50 (SW-620 colon): > 100 µM
TGI (SW-620 colon): > 100 µM
GI50 (MCF7 breast): > 100 µM
TGI (MCF7 breast): > 100000 nM
GI50 (RXF 393 renal): > 100 µM
TGI (RXF 393 renal): > 100 µM
GI50 (HCC-2998 colon): > 100 µM
TGI (HCC-2998 colon): > 100000 nM
GI50 (PC-3 prostate): > 100 µM
TGI (PC-3 prostate): > 100 µM
GI50 (786-0 renal): > 100 µM
TGI (786-0 renal): > 100 µM
GI50 (UACC-62 melanoma): > 100 µM
TGI (UACC-62 melanoma): > 100 µM
GI50 (SF-539 CNS): > 100 µM
TGI (SF-539 CNS): > 100000 nM
GI50 (DU-145 prostate): > 100 µM
TGI (DU-145 prostate): > 100000 nM
GI50 (OVCAR-3 ovarian): > 100 µM
TGI (OVCAR-3 ovarian): > 100000 nM
GI50 (RPMI-8226 leukemia): > 100 µM
TGI (RPMI-8226 leukemia): > 100 µM
GI50 (HCT-15 colon): > 100 µM
TGI (HCT-15 colon): > 100 µM
GI50 (BT-549 breast): > 100 µM
TGI (BT-549 breast): > 100 µM
GI50 (MDA-MB-435): > 100 µM
TGI (MDA-MB-435): > 100 µM
GI50 (IGROV1 ovarian): > 100 µM
TGI (IGROV1 ovarian): > 100 µM
GI50 (SK-MEL-5 melanoma): > 100 µM
TGI (SK-MEL-5 melanoma): > 100000 nM
GI50 (UACC-257 melanoma): > 100 µM
TGI (UACC-257 melanoma): > 100 µM
GI50 (OVCAR-5 ovarian): > 100 µM
TGI (OVCAR-5 ovarian): > 100 µM
GI50 (UO-31 renal): > 100 µM
TGI (UO-31 renal): > 100 µM
GI50 (NCI-H23 lung): > 100 µM
TGI (NCI-H23 lung): > 100 µM
GI50 (MOLT-4 leukemia): > 100 µM
TGI (MOLT-4 leukemia): > 100 µM
GI50 (SR leukemia): > 100 µM
TGI (SR leukemia): > 100 µM
GI50 (SK-OV-3 ovarian): > 100 µM
TGI (SK-OV-3 ovarian): > 100000 nM

CN(C)c1ccc(/C=c2/c3ccccc3n3c2cc(/C=C/c2ccccc2)[n+]3C)cc1
TGI (COLO 205 colon): 315 nM
TGI (HOP-62 NSCLC): 1160 nM
TGI (ACHN renal): 1220 nM
TGI (OVCAR-4 ovarian): 1860 nM
TGI (CAKI-1 renal): 51.2 µM
TGI (T-47D breast): 123 nM
TGI (SF-295 CNS): 944 nM
TGI (K-562 leukemia): > 100 µM
TGI (CCRF-CEM leukemia): 82.1 nM
TGI (NCI/ADR-RES ovarian): > 50.6 µM
TGI (TK-10 renal): 3.77 µM
TGI (MCF7 breast): 591 nM
TGI (HCC-2998 colon): 1080 nM
TGI (SF-539 CNS): 132 nM
TGI (DU-145 prostate): 1370 nM
TGI (OVCAR-3 ovarian): 795 nM
TGI (HCT-15 colon): 3.49 µM
TGI (SK-MEL-5 melanoma): 272 nM
TGI (SK-OV-3 ovarian): 1140 nM
